# Values joined by “and” are separate entries in the source; they are usually repeats but may differ in a detail not shown here. Equal entries are not always repeated.
# What was measured:
# [1] = system: MFM-223; assay: normalised viability (% of control), CellTiter-Blue; higher = more viable cells (about 100 = DMSO control); conditions: incubation time: 72 h
# Summary of the method: (§1)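 Each entry is normalised viability at a single listed concentration within a series. It comes from breast cancer cell lines incubated 72 h with compound in 384-well plates, then measured with CellTiter-Blue fluorescence at 560/590 nm. Every plate was normalised between vehicle (100) and a positive kill control (0).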
# [2] = system: CAL-85-1; assay: as above; conditions: incubation time: 72 h
# Summary of the method: as §1
# [3] = system: MDA-MB-231; assay: as above; conditions: incubation time: 72 h
# Summary of the method: as §1
# [4] = system: CAL-51; assay: as above; conditions: incubation time: 72 h
# Summary of the method: as §1
# [5] = system: MDA-MB-453; assay: as above; conditions: incubation time: 72 h
# Summary of the method: as §1
# [6] = system: BT-474; assay: as above; conditions: incubation time: 72 h
# Summary of the method: as §1
# [7] = system: DU-4475; assay: as above; conditions: incubation time: 72 h
# Summary of the method: as §1
# [8] = system: HDQ-P1; assay: as above; conditions: incubation time: 72 h
# Summary of the method: as §1
# [9] = system: SK-BR-3; assay: as above; conditions: incubation time: 72 h
# Summary of the method: as §1
# [10] = system: CAL-120; assay: as above; conditions: incubation time: 72 h
# Summary of the method: as §1
# [11] = system: BT-549; assay: as above; conditions: incubation time: 72 h
# Summary of the method: as §1
# [12] = system: MDA-MB-468; assay: as above; conditions: incubation time: 72 h
# Summary of the method: as §1
# [13] = system: HCC1937; assay: as above; conditions: incubation time: 72 h
# Summary of the method: as §1
# [14] = system: CAL-148; assay: as above; conditions: incubation time: 72 h
# Summary of the method: as §1
# [15] = system: HCC1143; assay: as above; conditions: incubation time: 72 h
# Summary of the method: as §1
# [16] = system: HCC1599; assay: as above; conditions: incubation time: 72 h
# Summary of the method: as §1
# [17] = system: MDA-MB-436; assay: as above; conditions: incubation time: 72 h
# Summary of the method: as §1
# [18] = system: MFM-223; assay: normalised viability (% of control), CellTiter-Blue; higher = more viable cells (100 = DMSO, 0 = benzethonium chloride kill control); conditions: 1 nM; incubation time: 72 h
# Summary of the method: as §1
# [19] = system: MDA-MB-231; assay: as above; conditions: 1 nM; incubation time: 72 h
# Summary of the method: as §1
# [20] = system: CAL-51; assay: as above; conditions: 1 nM; incubation time: 72 h
# Summary of the method: as §1
# [21] = system: DU-4475; assay: as above; conditions: 1 nM; incubation time: 72 h
# Summary of the method: as §1
# [22] = system: HDQ-P1; assay: as above; conditions: 1 nM; incubation time: 72 h
# Summary of the method: as §1
# [23] = system: SK-BR-3; assay: as above; conditions: 1 nM; incubation time: 72 h
# Summary of the method: as §1
# [24] = system: Hs578T; assay: as above; conditions: 1 nM; incubation time: 72 h
# Summary of the method: as §1
# [25] = system: CAL-120; assay: as above; conditions: 1 nM; incubation time: 72 h
# Summary of the method: as §1
# [26] = system: HCC1143; assay: as above; conditions: 1 nM; incubation time: 72 h
# Summary of the method: as §1
smiles,measurement,setting,value
COc1nc(N)nc2c1ncn2[C@@H]1O[C@H](CO)[C@@H](O)[C@@H]1O [Nelarabine],normalised viability,[1]; 10 nM,108% and 111%
same,normalised viability,[1]; 1000 nM,94.9% and 98.1%
same,normalised viability,[1]; 10000 nM,103% and 104%
same,normalised viability,[2]; 3 nM,99.3% and 102%
same,normalised viability,[2]; 30 nM,98.7% and 100%
same,normalised viability,[2]; 100 nM,101% and 102%
same,normalised viability,[3]; 10 nM,88.9% and 90.1%
same,normalised viability,[3]; 1000 nM,87.8% and 95%
same,normalised viability,[3]; 10000 nM,92.7% and 89.8%
same,normalised viability,[4]; 3 nM,106% and 105%
same,normalised viability,[4]; 30 nM,98.7% and 104%
same,normalised viability,[4]; 100 nM,97.4% and 106%
same,normalised viability,[5]; 3 nM,93.2% and 104%
same,normalised viability,[5]; 30 nM,99.5% and 116%
same,normalised viability,[5]; 100 nM,93.8% and 101%
same,normalised viability,[6]; 10 nM,96.7% and 102%
same,normalised viability,[6]; 1000 nM,92.1% and 93.3%
same,normalised viability,[6]; 10000 nM,92.8% and 94.6%
same,normalised viability,[7]; 3 nM,117% and 116%
same,normalised viability,[7]; 30 nM,97% and 101%
same,normalised viability,[7]; 100 nM,106% and 126%
same,normalised viability,[8]; 3 nM,77.3% and 89.3%
same,normalised viability,[8]; 30 nM,91.1% and 89.2%
same,normalised viability,[9]; 10 nM,93.9% and 93.6%
same,normalised viability,[9]; 10000 nM,102% and 82.1%
same,normalised viability,[10]; 10 nM,109% and 93.6%
same,normalised viability,[10]; 1000 nM,96.1% and 105%
same,normalised viability,[10]; 10000 nM,95.9% and 107%
same,normalised viability,[11]; 10 nM,95.2% and 85.3%
same,normalised viability,[11]; 1000 nM,98% and 91%
same,normalised viability,[11]; 10000 nM,86.4% and 80.4%
same,normalised viability,[12]; 10 nM,97.3% and 99%
same,normalised viability,[12]; 1000 nM,93.2% and 93.8%
same,normalised viability,[12]; 10000 nM,94.3% and 93.1%
same,normalised viability,[13]; 1000 nM,109% and 93.9%
same,normalised viability,[13]; 10000 nM,92.3% and 80.8%
same,normalised viability,[14]; 3 nM,92% and 97%
same,normalised viability,[14]; 30 nM,94.7% and 93.5%
same,normalised viability,[14]; 100 nM,95.4% and 91.8%
same,normalised viability,[15]; 1000 nM,103% and 88.2%
same,normalised viability,[15]; 10000 nM,105% and 89.6%
same,normalised viability,[16]; 10 nM,115% and 117%
same,normalised viability,[16]; 1000 nM,108% and 123%
same,normalised viability,[16]; 10000 nM,136% and 114%
same,normalised viability,[17]; 10000 nM,91.2% and 94.8%
same,normalised viability,[18],97.6% and 107%
same,normalised viability,[19],93.7% and 78.7%
same,normalised viability,[20],102% and 99.3%
same,normalised viability,[21],109% and 118%
same,normalised viability,[22],77.2% and 91.2%
same,normalised viability,[23],90% and 95.9%
same,normalised viability,[24],99.1% and 107%
same,normalised viability,[25],101% and 102%
same,normalised viability,[26],105% and 98.5%
Cc1ccc(Nc2nccc(N(C)c3ccc4c(C)n(C)nc4c3)n2)cc1S(N)(=O)=O [Pazopanib],normalised viability,[1]; 10 nM,86.8%
same,normalised viability,[1]; 1000 nM,51.8%
same,normalised viability,[1]; 10000 nM,58.6%
same,normalised viability,[2]; 3 nM,92.2%
same,normalised viability,[2]; 30 nM,77.8%
same,normalised viability,[2]; 100 nM,95.3%
same,normalised viability,[3]; 10 nM,86.3%
same,normalised viability,[3]; 1000 nM,88.7%
same,normalised viability,[3]; 10000 nM,61.4%
same,normalised viability,[4]; 3 nM,108%
same,normalised viability,[4]; 30 nM,103%
same,normalised viability,[4]; 100 nM,99.9%
same,normalised viability,[5]; 3 nM,97.7%
same,normalised viability,[5]; 30 nM,108%
same,normalised viability,[5]; 100 nM,102%
same,normalised viability,[6]; 10 nM,105%
same,normalised viability,[6]; 1000 nM,109%
same,normalised viability,[6]; 10000 nM,104%
same,normalised viability,[7]; 3 nM,97%
same,normalised viability,[7]; 30 nM,100%
same,normalised viability,[7]; 100 nM,104%
same,normalised viability,[8]; 3 nM,107%
same,normalised viability,[8]; 30 nM,103%
same,normalised viability,[8]; 100 nM,99.2%
same,normalised viability,[9]; 10 nM,98.4%
same,normalised viability,[9]; 1000 nM,99%
same,normalised viability,[9]; 10000 nM,88.1%
same,normalised viability,[10]; 10 nM,85.5%
same,normalised viability,[10]; 1000 nM,91.2%
same,normalised viability,[10]; 10000 nM,97.5%
same,normalised viability,[11]; 10 nM,86.8%
same,normalised viability,[11]; 1000 nM,86.6%
same,normalised viability,[11]; 10000 nM,45.6%
same,normalised viability,[12]; 10 nM,106%
same,normalised viability,[12]; 1000 nM,108%
same,normalised viability,[12]; 10000 nM,99.4%
same,normalised viability,[13]; 10 nM,86.7%
same,normalised viability,[13]; 1000 nM,92%
same,normalised viability,[13]; 10000 nM,94.3%
same,normalised viability,[14]; 3 nM,78.5%
same,normalised viability,[14]; 30 nM,88.9%
same,normalised viability,[14]; 100 nM,82.1%
same,normalised viability,[15]; 10 nM,76.5%
same,normalised viability,[15]; 1000 nM,101%
same,normalised viability,[15]; 10000 nM,60.7%
same,normalised viability,[16]; 10 nM,96.5%
same,normalised viability,[16]; 1000 nM,115%
same,normalised viability,[16]; 10000 nM,104%
same,normalised viability,[17]; 10 nM,97.5%
same,normalised viability,[17]; 1000 nM,77.4%
same,normalised viability,[17]; 10000 nM,77.4%
same,normalised viability,[18],90%
same,normalised viability,[19],97.7%
same,normalised viability,[20],103%
same,normalised viability,[21],98.9%
same,normalised viability,[22],72.8%
same,normalised viability,[23],105%
same,normalised viability,[24],94.8%
same,normalised viability,[25],78.5%
same,normalised viability,[26],87.1%
O=C(CCBr)N1CCN(C(=O)CCBr)CC1 [Pipobroman],normalised viability,[1]; 10 nM,86.6%
same,normalised viability,[1]; 1000 nM,90.4%
same,normalised viability,[1]; 10000 nM,35.7%
same,normalised viability,[2]; 3 nM,99.3%
same,normalised viability,[2]; 30 nM,98.6%
same,normalised viability,[2]; 100 nM,100%
same,normalised viability,[3]; 10 nM,97.8%
same,normalised viability,[3]; 1000 nM,104%
same,normalised viability,[3]; 10000 nM,89.4%
same,normalised viability,[4]; 3 nM,114%
same,normalised viability,[4]; 30 nM,111%
same,normalised viability,[4]; 100 nM,103%
same,normalised viability,[5]; 3 nM,124%
same,normalised viability,[5]; 30 nM,95.9%
same,normalised viability,[5]; 100 nM,92.7%
same,normalised viability,[6]; 10 nM,120%
same,normalised viability,[6]; 1000 nM,102%
same,normalised viability,[6]; 10000 nM,133%
same,normalised viability,[7]; 3 nM,111%
same,normalised viability,[7]; 30 nM,105%
same,normalised viability,[7]; 100 nM,108%
same,normalised viability,[8]; 3 nM,104%
same,normalised viability,[8]; 30 nM,83.8%
same,normalised viability,[8]; 100 nM,107%
same,normalised viability,[9]; 10 nM,101%
same,normalised viability,[9]; 1000 nM,119%
same,normalised viability,[9]; 10000 nM,95.6%
same,normalised viability,[10]; 10 nM,90.1%
same,normalised viability,[10]; 1000 nM,103%
same,normalised viability,[10]; 10000 nM,84.9%
same,normalised viability,[11]; 10 nM,87.1%
same,normalised viability,[11]; 1000 nM,87.1%
same,normalised viability,[11]; 10000 nM,84.2%
same,normalised viability,[12]; 10 nM,98%
same,normalised viability,[12]; 1000 nM,94.2%
same,normalised viability,[12]; 10000 nM,87.4%
same,normalised viability,[13]; 10 nM,89.2%
same,normalised viability,[13]; 1000 nM,77.9%
same,normalised viability,[13]; 10000 nM,85.3%
same,normalised viability,[14]; 3 nM,97.9%
same,normalised viability,[14]; 30 nM,102%
same,normalised viability,[14]; 100 nM,103%
same,normalised viability,[15]; 10 nM,82%
same,normalised viability,[15]; 1000 nM,86.2%
same,normalised viability,[15]; 10000 nM,88.2%
same,normalised viability,[16]; 10 nM,97%
same,normalised viability,[16]; 1000 nM,92.8%
same,normalised viability,[16]; 10000 nM,83.2%
same,normalised viability,[17]; 10 nM,92.6%
same,normalised viability,[17]; 1000 nM,98.7%
same,normalised viability,[17]; 10000 nM,81.7%
same,normalised viability,[18],82.8%
same,normalised viability,[19],97.8%
same,normalised viability,[20],112%
same,normalised viability,[21],111%
same,normalised viability,[22],99.3%
same,normalised viability,[23],92.1%
same,normalised viability,[24],95.3%
same,normalised viability,[25],89.1%
same,normalised viability,[26],94.7%
